In ChEMBL document CHEMBL5608192, “Discovery and characterization of small-molecule TGR5 ligands with agonistic activity” (Eur J Med Chem, 2024):

Tests used:
[1] = Effect on CRE-luciferase activity in TGR5 non-expressing HEK293-A cells transfected with EPAC-based FRET biosensor assessed as fold activation at 30 uM incubated for 18 hrs by spectrophotometric analysis relative to control; type: functional, Homo sapiens
[2] = Effect on cAMP accumulation in non-TGR5 expressing HEK293-A cells transfected with EPAC-based FRET biosensor at 30 uM incubated for 10 mins in presence of IBMX and roflumilast by fluorescence based photometry relative to control; type: functional, Homo sapiens
[3] = target: T1, G-protein coupled bile acid receptor 1 (Homo sapiens) (UniProt Q8TDU6); test: (§1) Agonist activity at human TGR5 expressed in HEK293-A cells co-transfected with EPAC-based FRET biosensor incubated for 18 hrs by CRE-luciferase reporter gene assay; type: functional, cell-based; details: filed as agonist
T1 sequence (whole entry): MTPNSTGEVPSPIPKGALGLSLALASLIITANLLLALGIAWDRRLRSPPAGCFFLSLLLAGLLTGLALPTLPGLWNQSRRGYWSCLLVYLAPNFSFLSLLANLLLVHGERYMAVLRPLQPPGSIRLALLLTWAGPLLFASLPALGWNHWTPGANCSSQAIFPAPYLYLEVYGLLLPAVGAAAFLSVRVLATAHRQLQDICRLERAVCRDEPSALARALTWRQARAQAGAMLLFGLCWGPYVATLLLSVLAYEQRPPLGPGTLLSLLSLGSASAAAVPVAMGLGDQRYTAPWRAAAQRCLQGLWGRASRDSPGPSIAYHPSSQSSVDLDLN

[4] = target: T2, G-protein coupled bile acid receptor 1 (Homo sapiens, UniProt Q8TDU6); test: as §1; type: functional, cell-based
T2 sequence (Q8TDU6 whole entry): T1 sequence (whole entry)

[5] = target: T2, G-protein coupled bile acid receptor 1; test: Agonist activity at human TGR5 expressed in HEK293-A cells co-transfected with EPAC-based FRET biosensor assessed as increase in cAMP accumulation incubated for 10 mins by spectrophotometry; type: functional, cell-based

Row | Compound | fold change (FC) [1] | Activity [2] [%] | Activity [3] | EC50 [4] [µM] | EC50 [5] [µM]
1 | c1cc(CNC2CC2)cc(-c2cccc3cccnc23)c1 | 1.22 | 105.3 | – | – | –
2 | CC(C)c1ccccc1OCCC(=O)NC[C@@H]1Cc2ccccc21 | 0.57 | 107.1 | Dose-Dependent Effect | – | –
3 | c1ccc(-n2cccc2CNC2CCCN(C3Cc4ccccc4C3)C2)nc1 (stereo not drawn) | 1.44 | 104 | – | – | –
4 | CC1(C)c2ccccc2CCN1CC(=O)NC[C@@H]1Cc2ccccc2O1 | 0.82 | 103.7 | Dose-Dependent Effect | 19 | 30
5 | Cc1ccc(CCCNC(=O)NCc2cn3c(C)cccc3n2)c(C)c1 | 0.87 | – | – | – | –
6 | CO[C@@H](CNC(=O)CCc1cc2cc(Br)ccc2s1)Cc1ccccc1 | 0.75 | 106.4 | Dose-Dependent Effect | – | –
7 | Cc1cc(S(=O)(=O)NCCn2ccnc2C2CC2)c(Cl)cc1Cl | 0.96 | 103.9 | – | – | –
